Experimental data reported in ChEMBL document CHEMBL1201862, “PubChem BioAssay data set” (2004).
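Exposure lasted 48 hours, with cells grown in 96-well plates and compounds tested at five concentrations. At the GI50, growth is halved.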 Active and inactive are the calls of the source. Cut-off read from the data, not from the text of the source: active = GI50 up to about 1.1 µM and inactive = higher.

Columns and labels:
Experiment in all cases: NCI tumour cell line growth inhibition, 48 h
786-0 = system: 786-0
A498 = system: A498
A549 = system: A549
ACHN = system: ACHN
BT-549 = system: BT-549
CAKI-1 = system: CAKI-1
CCRF-CEM = system: CCRF-CEM
COLO 205 = system: COLO 205
DU-145 = system: DU-145
EKVX = system: EKVX
HCC 2998 = system: HCC 2998
HCT-116 = system: HCT-116
HCT-15 = system: HCT-15
HL-60 = system: HL-60
HOP-62 = system: HOP-62
HOP-92 = system: HOP-92
HT-29 = system: HT-29
Hs-578T = system: Hs-578T
IGROV-1 = system: IGROV-1
KM12 = system: KM12
LOX IMVI = system: LOX IMVI
M14 = system: M14
MCF7 = system: MCF7
MDA-MB-231 = system: MDA-MB-231
MDA-MB-435 = system: MDA-MB-435
MDA-N = system: MDA-N
MOLT-4 = system: MOLT-4
Malme-3M = system: Malme-3M
NCI-H226 = system: NCI-H226
NCI-H23 = system: NCI-H23
NCI-H460 = system: NCI-H460
NCI-H522 = system: NCI-H522
NCI/ADR-RES = system: NCI/ADR-RES
OVCAR-3 = system: OVCAR-3
OVCAR-4 = system: OVCAR-4
OVCAR-5 = system: OVCAR-5
OVCAR-8 = system: OVCAR-8
PC-3 = system: PC-3
RPMI-8226 = system: RPMI-8226
RXF 393 = system: RXF 393
SF-268 = system: SF-268
SF-295 = system: SF-295
SF-539 = system: SF-539
SK-MEL-28 = system: SK-MEL-28
SK-MEL-2 = system: SK-MEL-2
SK-MEL-5 = system: SK-MEL-5
SK-OV-3 = system: SK-OV-3
SN12C = system: SN12C
SNB-19 = system: SNB-19
SNB-75 = system: SNB-75
SR = system: SR
SW-620 = system: SW-620
T47D = system: T47D
TK-10 = system: TK-10
U-251 = system: U-251
UACC-62 = system: UACC-62
UO-31 = system: UO-31
K562 = system: K562
UACC-257 = system: UACC-257

For CSc1nc(SC)c2c(C)cn(C3OC(C)C(O)C(O)C3O)c2n1 (stereo unspecified), the GI50 (786-0) was > 100 µM (inactive), the GI50 (A498) was 27.9 µM (inactive) and the GI50 (A549) was 74.5 µM (inactive). For the same compound, the GI50 (ACHN) was 58.2 µM (inactive), the GI50 (BT-549) was 39.2 µM (inactive) and the GI50 (CAKI-1) was < 0.01 µM (active). For the same compound, the GI50 (CCRF-CEM) was 45.7 µM (inactive), the GI50 (COLO 205) was 86.7 µM (inactive) and the GI50 (DU-145) was 62.5 µM (inactive). For the same compound, the GI50 (EKVX) was > 100 µM (inactive), the GI50 (HCC 2998) was 57.5 µM (inactive) and the GI50 (HCT-116) was > 100 µM (inactive). For the same compound, the GI50 (HCT-15) was 74.1 µM, the GI50 (HL-60) was 46.2 µM (inactive) and the GI50 (HOP-62) was > 100 µM (inactive). The GI50 (HOP-92) was 32.6 µM (inactive), the GI50 (HT-29) was 53.7 µM (inactive) and the GI50 (Hs-578T) was 45.6 µM (inactive). The GI50 (IGROV-1) was 70 µM (inactive), the GI50 (KM12) was 56.8 µM (inactive) and the GI50 (LOX IMVI) was 31.8 µM (inactive). For the same compound, the GI50 (M14) was 87.1 µM (inactive), the GI50 (MCF7) was 58.9 µM (inactive) and the GI50 (MDA-MB-231) was 52.7 µM (inactive). The GI50 (MDA-MB-435) was 40 µM (inactive), the GI50 (MDA-N) was 67.6 µM (inactive) and the GI50 (MOLT-4) was 39.3 µM (inactive). For the same compound, the GI50 (Malme-3M) was > 100 µM (inactive), the GI50 (NCI-H226) was 66.7 µM (inactive) and the GI50 (NCI-H23) was 94 µM (inactive). The GI50 (NCI-H460) was 43.1 µM (inactive), the GI50 (NCI-H522) was 96.2 µM (inactive) and the GI50 (NCI/ADR-RES) was 67.3 µM (inactive). For the same compound, the GI50 (OVCAR-3) was 48.8 µM (inactive), the GI50 (OVCAR-4) was 64.1 µM (inactive) and the GI50 (OVCAR-5) was > 100 µM (inactive). For the same compound, the GI50 (OVCAR-8) was 74.6 µM (inactive), the GI50 (PC-3) was 43.9 µM (inactive) and the GI50 (RPMI-8226) was 42.4 µM (inactive). For the same compound, the GI50 (RXF 393) was > 100 µM (inactive), the GI50 (SF-268) was 95.7 µM (inactive) and the GI50 (SF-295) was 57 µM (inactive). The GI50 (SF-539) was 21 µM (inactive), the GI50 (SK-MEL-28) was 84.3 µM (inactive) and the GI50 (SK-MEL-2) was 73.5 µM (inactive). For the same compound, the GI50 (SK-MEL-5) was 63.4 µM (inactive), the GI50 (SK-OV-3) was > 100 µM (inactive) and the GI50 (SN12C) was > 100 µM (inactive). The GI50 (SNB-19) was 57 µM (inactive), the GI50 (SNB-75) was 52.6 µM (inactive) and the GI50 (SR) was 33.3 µM (inactive). For the same compound, the GI50 (SW-620) was > 100 µM (inactive), the GI50 (T47D) was 34.1 µM (inactive) and the GI50 (TK-10) was 62.2 µM (inactive). For the same compound, the GI50 (U-251) was 62.7 µM (inactive), the GI50 (UACC-62) was 76.6 µM (inactive) and the GI50 (UO-31) was 36.3 µM (inactive).
In the case of CN(C)CCCc1c[nH]c2ccccc12, the GI50 (786-0) is reported as > 100 µM (inactive), the GI50 (A498) is reported as > 100 µM (inactive) and the GI50 (A549) is reported as > 100 µM (inactive). For the same compound, the GI50 (ACHN) was > 100 µM (inactive), the GI50 (BT-549) was > 100 µM (inactive) and the GI50 (CAKI-1) was > 100 µM (inactive). For the same compound, the GI50 (CCRF-CEM) was > 100 µM (inactive), the GI50 (COLO 205) was > 100 µM (inactive) and the GI50 (DU-145) was > 100 µM (inactive). For the same compound, the GI50 (EKVX) was > 100 µM (inactive), the GI50 (HCC 2998) was > 100 µM (inactive) and the GI50 (HCT-116) was > 100 µM (inactive). For the same compound, the GI50 (HCT-15) was greater than 100 µM, the GI50 (HL-60) was > 100 µM (inactive) and the GI50 (HOP-62) was > 100 µM (inactive). The GI50 (HOP-92) was > 100 µM (inactive), the GI50 (HT-29) was > 100 µM (inactive) and the GI50 (Hs-578T) was > 100 µM (inactive). The GI50 (IGROV-1) was > 100 µM (inactive), the GI50 (K562) was > 100 µM (inactive) and the GI50 (KM12) was > 100 µM (inactive). The GI50 (LOX IMVI) was > 100 µM (inactive), the GI50 (M14) was > 100 µM (inactive) and the GI50 (MCF7) was > 100 µM (inactive). The GI50 (MDA-MB-231) was > 100 µM (inactive), the GI50 (MDA-MB-435) was > 100 µM (inactive) and the GI50 (MDA-N) was > 100 µM (inactive). For the same compound, the GI50 (MOLT-4) was > 100 µM (inactive), the GI50 (Malme-3M) was > 100 µM (inactive) and the GI50 (NCI-H226) was > 100 µM (inactive). For the same compound, the GI50 (NCI-H23) was > 100 µM (inactive), the GI50 (NCI-H460) was > 100 µM (inactive) and the GI50 (NCI-H522) was > 100 µM (inactive). For the same compound, the GI50 (NCI/ADR-RES) was > 100 µM (inactive), the GI50 (OVCAR-3) was > 100 µM (inactive) and the GI50 (OVCAR-4) was > 100 µM (inactive). For the same compound, the GI50 (OVCAR-5) was > 100 µM (inactive), the GI50 (OVCAR-8) was > 100 µM (inactive) and the GI50 (PC-3) was > 100 µM (inactive). The GI50 (RPMI-8226) was > 100 µM (inactive), the GI50 (RXF 393) was > 100 µM (inactive) and the GI50 (SF-268) was > 100 µM (inactive). The GI50 (SF-295) was > 100 µM (inactive), the GI50 (SF-539) was > 100 µM (inactive) and the GI50 (SK-MEL-28) was > 100 µM (inactive). The GI50 (SK-MEL-2) was > 100 µM (inactive), the GI50 (SK-MEL-5) was > 100 µM (inactive) and the GI50 (SK-OV-3) was > 100 µM (inactive). The GI50 (SN12C) was > 100 µM (inactive), the GI50 (SNB-19) was > 100 µM (inactive) and the GI50 (SNB-75) was > 100 µM (inactive). For the same compound, the GI50 (SR) was > 100 µM (inactive), the GI50 (SW-620) was > 100 µM (inactive) and the GI50 (T47D) was > 100 µM (inactive). The GI50 (TK-10) was > 100 µM (inactive), the GI50 (U-251) was > 100 µM (inactive) and the GI50 (UACC-257) was > 100 µM (inactive). The GI50 (UACC-62) was > 100 µM (inactive) and the GI50 (UO-31) was > 100 µM (inactive).
